The results in this text go back to patent US10865191B2, “Heterocyclic compounds useful as modulators of TNF alpha” (BRISTOL-MYERS SQUIBB COMPANY, priority 2015, dated 2020).

The structures appear in SMILES notation. pIC50: −log10 of the molar value.

Sequence of TNFα (P01375 77-233 limits assumed): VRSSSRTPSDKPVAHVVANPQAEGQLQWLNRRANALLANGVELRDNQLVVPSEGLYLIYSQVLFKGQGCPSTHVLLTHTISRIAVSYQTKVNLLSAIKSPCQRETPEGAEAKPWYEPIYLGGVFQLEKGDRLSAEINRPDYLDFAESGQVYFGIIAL

In one test the target is TNFα (Homo sapiens, UniProt P01375). Put plainly: TNF induced HEK-Blue assay (NF-kB-driven secreted alkaline phosphatase reporter). In kind it is cell-based. Particulars: TNF induced HEK-Blue assay IC50 value, TNFα 0.5 ng/mL, HEK-Blue-CD40L cells, 18 h. In outline:
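HEK-Blue-CD40L cells (NF-kB-driven SEAP reporter), 20,000/well, added after 30 min pre-incubation of compound (0.004–25 μM final) with TNFα 0.5 ng/mL final at 37 °C; 18 h incubation. SEAP read with QUANTI-Blue at 620 nm; IC50 from 4-parameter logistic fit, normalized to unstimulated and stimulated DMSO controls.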
`C[C@@H](Nc1c(Cl)cnc2ccc(-c3cnc(C(C)(C)O)nc3)cc12)c1cc(N)ccc1F` [Example 374, (R)-2-(5-(4-((1-(5-amino-2-fluorophenyl)ethyl)amino)-3-chloroquinolin-6-yl)pyrimidin-2-yl)propan-2-ol] had a pIC50 greater than 6.00.

Compound `C[C@@H](Nc1c(Cl)cnc2ccc(-c3cnc(C(C)(C)O)nc3)cc12)c1cc(C#N)ccc1F` [Example 376, (R)-3-(1-((3-chloro-6-(2-(2-hydroxypropan-2-yl)pyrimidin-5-yl)quinolin-4-yl)amino)ethyl)-4-fluorobenzonitrile] showed a negative-log IC50 (pIC50) greater than 6.00.

The test is the same for the next values; noted with them: TNFα 0.5 ng/mL, HEK-Blue-CD40L cells, 18 h; read-out: TNF induced HEK-Blue assay IC50 value.
Take `Cc1nc2ccc(-c3cnc(C(C)(C)O)nc3)cc2c(N[C@H](C)c2cc(N3CCNC3=O)ccc2F)c1Cl` [Example 373, (R)-1-(3-(1-((3-chloro-6-(2-(2-hydroxypropan-2-yl)pyrimidin-5-yl)-2-methylquinolin-4-yl)amino)ethyl)-4-fluorophenyl)imidazolidin-2-one]: the negative logarithm of the IC50 (pIC50) was greater than 6.00.

As to `Cc1nc2ccc(-c3cnc(C(C)(C)O)nc3)cc2c(N[C@H](C)c2cc(C#N)ccc2F)c1Cl` [Example 375, (R)-3-(1-((3-chloro-6-(2-(2-hydroxypropan-2-yl)pyrimidin-5-yl)-2-methylquinolin-4-yl)amino)ethyl)-4-fluorobenzonitrile], the pIC50 was greater than 6.00.

With `Cc1nc2ccc(-c3cnc(N4CCN(CC(=O)O)CC4)nc3)cc2c(N[C@H](C)c2cc(C#N)ccc2F)c1Cl` [Example 377, (R)-2-(4-(5-(3-chloro-4-((1-(5-cyano-2-fluorophenyl)ethyl)amino)-2-methylquinolin-6-yl)pyrimidin-2-yl)piperazin-1-yl)acetic acid], the pIC50 is greater than 6.00.

For `Cc1nc2ccc(-c3cnc(C(C)(C)O)nc3)cc2c(N[C@H](c2cc(C#N)ccc2F)C(F)F)c1Cl` [Example 378, (R)-3-(1-((3-chloro-6-(2-(2-hydroxypropan-2-yl)pyrimidin-5-yl)-2-methylquinolin-4-yl)amino)-2,2-difluoroethyl)-4-fluorobenzonitrile], the negative-log IC50 (pIC50) was 4.60 to 5.00.

For the compound `C[C@@H](Nc1c(Cl)cnc2cc(F)c(-c3cnc(C(C)(C)O)nc3)cc12)c1cc(C#N)ccc1F` [Example 379, (R)-3-(1-((3-chloro-7-fluoro-6-(2-(2-hydroxypropan-2-yl)pyrimidin-5-yl)quinolin-4-yl)amino)ethyl)-4-fluorobenzonitrile], the negative logarithm of the IC50 (pIC50) was greater than 6.00.

As for `Cc1nc2ccc(-c3cnc(C(C)(C)O)nc3)cc2c(N[C@@H](c2cc(C#N)ccc2F)C(F)F)c1Cl` [Example 380, (S)-3-(1-((3-chloro-6-(2-(2-hydroxypropan-2-yl)pyrimidin-5-yl)-2-methylquinolin-4-yl)amino)-2,2-difluoroethyl)-4-fluorobenzonitrile], the negative logarithm of the IC50 (pIC50) is greater than 6.00.

Consider `CC(C)(O)c1ncc(-c2cc3c(N[C@@H](c4cc(C#N)ccc4F)C(F)F)c(Cl)cnc3cc2F)cn1` [Example 381, (S)-3-(1-((3-chloro-7-fluoro-6-(2-(2-hydroxypropan-2-yl)pyrimidin-5-yl)quinolin-4-yl)amino)-2,2-difluoroethyl)-4-fluorobenzonitrile], for which the negative logarithm of the IC50 (pIC50) is greater than 6.00.

Take `Cc1nc2cc(F)c(-c3cnc(C(C)(C)O)nc3)cc2c(N[C@H](C)c2cc(C#N)ccc2F)c1Cl` [Example 382, (R)-3-(1-((3-chloro-7-fluoro-6-(2-(2-hydroxypropan-2-yl)pyrimidin-5-yl)-2-methylquinolin-4-yl)amino)ethyl)-4-fluorobenzonitrile]: the negative logarithm of the IC50 (pIC50) was greater than 6.00.

For `Cc1nc2cc(F)c(-c3cnc(C(C)(C)O)nc3)cc2c(N[C@H](C)c2cccc(C#N)c2)c1Cl` [Example 383, (R)-3-(1-((3-chloro-7-fluoro-6-(2-(2-hydroxypropan-2-yl)pyrimidin-5-yl)-2-methylquinolin-4-yl)amino)ethyl)benzonitrile], the pIC50 was greater than 6.00.

With `CCOC(=O)c1nc2ccc(-c3cnc(C(C)(C)O)nc3)cc2c(N[C@H](C)c2cc(C#N)ccc2F)c1Cl` [Example 384, ethyl (R)-3-chloro-4-((1-(5-cyano-2-fluorophenyl)ethyl)amino)-6-(2-(2-hydroxypropan-2-yl)pyrimidin-5-yl)quinoline-2-carboxylate], the negative logarithm of the IC50 (pIC50) is 5.00 to 6.00.

Take `C[C@@H](Nc1c(Cl)c(C(=O)Nc2cccnc2)nc2ccc(-c3cnc(C(C)(C)O)nc3)cc12)c1cc(C#N)ccc1F` [Example 385, (R)-3-chloro-4-((1-(5-cyano-2-fluorophenyl)ethyl)amino)-6-(2-(2-hydroxypropan-2-yl)pyrimidin-5-yl)-N-(pyridin-3-yl)quinoline-2-carboxamide]: the negative-log IC50 (pIC50) is 5.00 to 6.00.

Take `Cc1nc2ccc(-c3cnc(C(C)(C)O)nc3)cc2c(N[C@H](C)c2cccc(C#N)c2)c1Cl` [Example 386, (R)-3-(1-((3-chloro-6-(2-(2-hydroxypropan-2-yl)pyrimidin-5-yl)-2-methylquinolin-4-yl)amino)ethyl)benzonitrile]: the pIC50 was greater than 6.00.

For `Cc1nc2ccc(-c3cnc(C(C)(C)O)nc3)cc2c(N[C@H](C)c2cc(C(N)=O)ccc2F)c1Cl` [Example 387, (R)-3-(1-((3-chloro-6-(2-(2-hydroxypropan-2-yl)pyrimidin-5-yl)-2-methylquinolin-4-yl)amino)ethyl)-4-fluorobenzamide], the pIC50 is greater than 6.00.

Regarding `C[C@@H](Nc1c(Cl)cnc2ccc(-c3cnc(C(C)(C)O)nc3)cc12)c1cc(C(N)=O)ccc1F` [Example 388, (R)-3-(1-((3-chloro-6-(2-(2-hydroxypropan-2-yl)pyrimidin-5-yl)quinolin-4-yl)amino)ethyl)-4-fluorobenzamide], the negative-log IC50 (pIC50) is greater than 6.00.

Turning to `Cc1nc2ccc(-c3cnc(N4CCN(CC(=O)O)CC4)nc3)cc2c(N[C@H](C)c2cc(C(N)=O)ccc2F)c1Cl` [Example 389, (R)-2-(4-(5-(4-((1-(5-carbamoyl-2-fluorophenyl)ethyl)amino)-3-chloro-2-methylquinolin-6-yl)pyrimidin-2-yl)piperazin-1-yl)acetic acid], the pIC50 was greater than 6.00.

Consider `Cc1nc2ccc(-c3cnc(C(C)(C)O)nc3)cc2c(N[C@@H](c2cc(C(N)=O)ccc2F)C(F)F)c1Cl` [Example 390, (S)-3-(1-((3-chloro-6-(2-(2-hydroxypropan-2-yl)pyrimidin-5-yl)-2-methylquinolin-4-yl)amino)-2,2-difluoroethyl)-4-fluorobenzamide], for which the pIC50 is greater than 6.00.

Regarding `CC(C)(O)c1ncc(-c2cc3c(N[C@@H](c4cc(C(N)=O)ccc4F)C(F)F)c(Cl)cnc3cc2F)cn1` [Example 391, (S)-3-(1-((3-chloro-7-fluoro-6-(2-(2-hydroxypropan-2-yl)pyrimidin-5-yl)quinolin-4-yl)amino)-2,2-difluoroethyl)-4-fluorobenzamide], the negative-log IC50 (pIC50) was greater than 6.00.

For the compound `C[C@@H](Nc1c(Cl)cnc2cc(F)c(-c3cnc(C(C)(C)O)nc3)cc12)c1cc(C(N)=O)ccc1F` [Example 392, (R)-3-(1-((3-chloro-7-fluoro-6-(2-(2-hydroxypropan-2-yl)pyrimidin-5-yl)quinolin-4-yl)amino)ethyl)-4-fluorobenzamide], the negative logarithm of the IC50 (pIC50) is greater than 6.00.

As to `Cc1nc2cc(F)c(-c3cnc(C(C)(C)O)nc3)cc2c(N[C@H](C)c2cc(C(N)=O)ccc2F)c1Cl` [Example 393, (R)-3-(1-((3-chloro-7-fluoro-6-(2-(2-hydroxypropan-2-yl)pyrimidin-5-yl)-2-methylquinolin-4-yl)amino)ethyl)-4-fluorobenzamide], the pIC50 is greater than 6.00.
